In patent US5648369A, “Aminoalkylpyridine compounds which are useful as anitconvulsant drugs, excitatory amino acid inhibitors and NMDA sigma receptor antagonists” (priority 1991, dated 1997):

Experiments:
in vivo = assay: in vivo; parameters: species or system rat (Sprague-Dawley); settings: rat, po
Text: Inability to do so rapidly indicates a neurologic deficit.

[1] = tested on: maximal electroshock seizures; assay: Maximal electroshock seizure (MES) test in the rat, p.o.; settings: for ED50 / responders at 50 mg/kg: Rattus norvegicus, po; for ED50: read-out: ED50 MES; for responders at 50 mg/kg: read-out: Percent protection at 50 mg/kg dose, p.o., in the MES Test in the rat
Text: (§5) The Maximal Electroshock Seizure Test (MES): Maximal electroshock seizures are elicited with a 60 Hz alternating current of 50 mA intensity in mice and about 150 mA in rats (5-7 times that necessary to elicit minimal electroshock seizures), delivered for 0.2 sec via corneal electrodes. A drop of 0.9% saline is instilled in the eye prior to application of the electrodes in order to prevent the death of the animal. Abolition of the hind limb tonic extension component of the seizure is defined as protection and results are expressed as number of animals protected/number of animals tested.
This species will be subject of the complete anticonvulsant quantification test evaluation as described above, but after oral (gavage) administration of the candidate compound.
Neurological deficit in rats is examined by the positional sense test and gait and stance test. […] Inability to do so rapidly indicates a neurologic deficit. In the gait and stance test, a neurologic deficit is indicated by a circular or zigzag gait, ataxia, abnormal spread of the legs, abnormal body posture, tremor, hyperactivity, lack of exploratory behavior, somnolence, stupor, or catalepsy.

MK-801 = assay: Radioligand binding, MK-801, [3H]MK-801
Text: (§1) EAAs are known to play important roles in excitatory neurotransmission in partial seizures as discussed earlier. […] Thus, several aminoalkylpyridines of this invention are effective antagonists of NMDA-receptor mediated EAA neurotransmission and function as noncompetitive NMDA antagonists and thus can be used to advantage in epilepsy, stroke and Alzheimer's disease.
(§2) EAAs are known to play important roles in excitatory transmission in partial seizures as discussed earlier. In general, antieptileptic drugs effective against MES seizures alter ionic transport across excitable membranes [Porter, R. J., and Pitlick, W. H., In "Basic and Clinical Pharmacology", 4th Edn., B. G. Katzung, Ed., Appleton and Lange, CA 1989, pp. 287-303]. Based on this rationale, the aminoalkylpyridines may be expected to attenuate EAA neurotransmission. Indeed, evaluation of potential displacement activity of #2 at all inhibitory and excitatory amino acid receptor types and subtypes using appropriate radioligands, indicate that this aminoalkylpyridine inhibits at 10 μM concentration, 49% of the binding of [^3 H]DTG, a ligand highly specific for the σ (sigma) receptor population of the PCP receptors on the NMDA receptor-ionophore complex (Table 6).
(§3) Values are expressed as the percent inhibition of specific binding and […]

[2] = tested on: subcutaneous pentylenetetrazol seizures; assay: Subcutaneous pentylenetetrazol seizure threshold test (scMet), rat, p.o.; assay type: in vivo, rat (Sprague-Dawley); settings: po
Procedure: (§4) The Subcutaneous Pentylenetetrazol (Metrazole) Seizure Threshold Test (scMet): A 0.5% solution of 85 mg/kg of pentylenetetrazol is administered subcutaneously in the posterior midline. The animal is observed for 30 minutes.

[3] = tested on: subcutaneous pentylenetetrazol seizures; assay: Subcutaneous pentylenetetrazol (Metrazole) seizure threshold test (scMet), mice, i.p.; assay type: in vivo; settings: Mus musculus, ip
Procedure: as §4

[4] = tested on: maximal electroshock seizures; assay: Maximal electroshock seizure (MES) test, anticonvulsant quantification in mice, i.p.; settings: for ED50: Mus musculus, ip, read-out: ED50 MES; for P.I. MES (TD50/ED50): mice
Procedure: Screening Methodology to Determine Anticonvulsant Activity: In mice, i.p.: All compounds are solubilized in 0.5% methylcellulose. […] The compounds are administered intraperitoneally in a volume of 0.01 ml/gm to male Carworth Farms #1 mice weighing about 20 gm. All compounds are tested at least at three dose levels (30, 100 an 300 mg/kg) at 30 minutes and 4 hours after their administration.
as §5
Anticonvulsant Quantification in Mice, i.p.: The ED50 values are determined in the MES, scMet and rotorod ataxia test.

[5] = Rotorod ataxia test (neurotoxicity), mice, i.p.; settings: mouse, in vivo, ip
Procedure: Neurotoxicity is evaluated in mice by the rotorod ataxia test. The animal is placed on a wooden rod of 11/8" diameter rotating at 6 rpm. Normal mice can remain on a rod rotating at this speed indefinitely.

MES and scMet seizures = assay: Anticonvulsant screening, ASP classification (MES and scMet tests) in mice, i.p.; assay type: in vivo, mouse; settings: for minimal effective dose: ip, i.p. mouse, read-out: ASP Group Classification; for ASP classification (Table 8): Table 8 comparison, titled MES Test, Rat, p.o.
Sigma = assay: Radioligand binding, Sigma, [3H]DTG; settings: σ receptor population
Text: EAAs are known to play important roles in excitatory neurotransmission in partial seizures as discussed earlier.
EAAs are known to play important roles in excitatory transmission in partial seizures as discussed earlier.

PCF = assay: Radioligand binding, PCP, [3H]TCP
Text: as §1, §2, §3

[6] = tested on: endogenous L-glutamate release; assay: Ca2+ dependent, K+ evoked release of endogenous L-glutamate in cerebrocortical slices; assay type: cell-based, guinea pig; settings: Cavia porcellus, means ± SEM, n = 4

Structure (SMILES) | responders at 50 mg/kg [1] | activity at the [3H]MK-801-binding receptor sites (in words) (MK-801) | minimal effective dose (MES and scMet seizures) | inhibition of the binding of [3H]DTG (in words) (Sigma) | activity at the [3H]TCP-binding receptor sites / PCP receptors (in words) (PCF) | other results
CC(Nc1ccccc1)c1ccncc1 (stereo not shown) [Compound 8, 1-(Anilino)-1-(4-pyridyl)-ethan] | 50 to 75% | no activity | < 100 mg/kg | inhibit selectively | no activity | TD50 (in vivo): > 500 mg/kg; ED50 [1]: 48.4 mg/kg; P.I. MES (TD50/ED50) ([1]; rat, p.o.): > 10.33; ED50 [2]: > 250 mg/kg; ED50 [3]: < 300 mg/kg; ED50 [4]: 81.7 mg/kg; P.I. MES (TD50/ED50) [4]: 1.97; TD50 [5]: 161 mg/kg
CC(Nc1ccc(Br)cc1)c1ccncc1 (stereo not shown) [Compound 4, 1-(4-Bromoanilino)-1-(4-pyridyl)-ethan] | 75 to 100% | no activity | < 100 mg/kg | inhibit selectively | no activity | TD50 (in vivo): > 500 mg/kg; ED50 [1]: 20.9 mg/kg; P.I. MES (TD50/ED50) ([1]; rat, p.o.): > 23.93; ED50 [2]: > 250 mg/kg; ED50 [3]: > 200 mg/kg; ED50 [4]: 62.7 mg/kg; P.I. MES (TD50/ED50) [4]: > 3.19; TD50 [5]: > 200 mg/kg
CC(Nc1ccc(F)cc1)c1ccncc1 (stereo not shown) [Compound 5, 1-(4-Fluoroanilino)-1-(4-pyridyl)-ethan] | 75 to 100% | no activity | < 100 mg/kg | inhibit selectively | no activity | TD50 (in vivo): > 500 mg/kg; ED50 [1]: 81.1 mg/kg; P.I. MES (TD50/ED50) ([1]; rat, p.o.): > 6.17; ED50 [2]: > 250 mg/kg; ED50 [3]: > 80 mg/kg; ED50 [4]: 57.4 mg/kg; P.I. MES (TD50/ED50) [4]: 2.46; TD50 [5]: 141 mg/kg
Clc1cccc(NCc2ccncc2)c1 [Compound 12, 1-(3-Chloroanilino)-1-(4-pyridyl)-methan] | > 50% | no activity | < 100 mg/kg | inhibit selectively | no activity | –
c1ccc(N2N=NCC2c2ccncc2)cc1 (stereo not shown) [H, reference compound] | – | – | – | – | – | ASP classification (Table 8) (MES and scMet seizures): II (Class II compounds show anticonvulsant activity at doses greater than 100 mg/kg or show activity at 100 mg/kg which is not reinforced by similar activity at 300 mg/kg)
Clc1ccc(NCc2ccncc2)cc1Cl [Compound 10, 1-(3,4-Dichloroanilino)-1-(4-pyridyl)-methan] | 50% | no activity | < 100 mg/kg | inhibit selectively | no activity | –
Cc1ccc(NCc2ccncc2)cc1 [Compound 15, 1-(4-Methylanilino)-1-(4-pyridyl)-methan] | – | – | < 100 mg/kg | – | – | –
CC(Nc1cccc(Cl)c1)c1ccncc1 (stereo not shown) [Compound 3, 1-(3-Chloroanilino)-1-(4-pyridyl)-ethan] | 50 to 75% | no activity | < 100 mg/kg | inhibit selectively | no activity | ED50 [3]: > 250 mg/kg; ED50 [4]: 95.5 mg/kg; P.I. MES (TD50/ED50) [4]: > 5.24; TD50 [5]: > 500 mg/kg
Cc1ccc(NC(C)c2ccncc2)cc1 (stereo not shown) [Compound 6, 1-(4-Methylanilino)-1-(4-pyridyl)-ethan] | – | no activity | < 100 mg/kg | inhibit selectively | no activity | ASP classification (Table 8) (MES and scMet seizures): I (They demonstrate anticonvulsant activity in either the MES test or the scMet test, or both at doses of 100 mg/kg or 30 mg/kg without signs of neurological deficit)
Fc1ccc(NCc2ccncc2)cc1 [Compound 14] | 25% | – | < 100 mg/kg | – | – | –
COc1ccc(NCc2ccncc2)cc1 [Compound 16, 1-(4-Methoxyanilino)-1-(4-pyridyl)-methan] | – | – | < 100 mg/kg | – | – | –
Cc1ccc(N2N=NCC2c2ccncc2)cc1 (stereo not shown) [4-CH3, reference compound] | – | – | – | – | – | ASP classification (Table 8) (MES and scMet seizures): II (Class II compounds show anticonvulsant activity at doses greater than 100 mg/kg or show activity at 100 mg/kg which is not reinforced by similar activity at 300 mg/kg)
CC(Nc1ccc(Cl)cc1)c1cccnc1 (stereo not shown) [Compound 9, 1-(4-Chloroanilino)-1-(3-pyridyl)-ethan] | 25 to 75% | no activity | < 100 mg/kg | inhibit selectively | no activity | –
c1ccc(C2(N3CCCCC3)CCCCC2)cc1 [PCP, phencyclidine, reference compound] | – | – | – | – | – | Ki (PCF; reference compound, [3H]TCP): 62.3 nM
COc1ccc(NC(C)c2ccncc2)cc1 (stereo not shown) [Compound 7, 1-(4-Methoxyanilino)-1-(4-pyridyl)-ethan] | 25 to 50% | – | < 100 mg/kg | – | – | protection at 50 mg/kg (Table 8) ([1]; 50 mg/kg, rat, p.o., MES): 25-50%; ASP classification (Table 8) (MES and scMet seizures): I (They demonstrate anticonvulsant activity in either the MES test or the scMet test, or both at doses of 100 mg/kg or 30 mg/kg without signs of neurological deficit)
C[C@]12N[C@H](Cc3ccccc31)c1ccccc12 [MK-801, reference compound] | – | – | – | – | – | Ki (MK-801; reference compound, [3H]MK-801): 4.3 nM
CC(Nc1ccc(Cl)c(Cl)c1)c1ccncc1 (stereo not shown) [Compound 1, 1-(3,4-Dicloroanilino)-1-(4-pyridyl)-ethan] | – | no activity | < 100 mg/kg | inhibit selectively | no activity | –
COc1ccc(N2N=NCC2c2ccncc2)cc1 (stereo not shown) [4-OCH3, reference compound] | – | – | – | – | – | ASP classification (Table 8) (MES and scMet seizures): III (Those failing to demonstrate anticonvulsant activity at doses up to 300 mg/kg are considered inactive)
Clc1ccc(N2N=NCC2c2ccncc2)cc1 (stereo not shown) [ADD17014, reference compound] | – | – | – | – | – | activity at 50 µM ([6]; 50 μM (K+), 30 mM K+, P < 0.001 vs K+ alone): 136 ± 6%; activity at 50 µM ([6]; 50 μM (basal)): 101 ± 9%; activity at 100 µM ([6]; 100 μM (K+), 30 mM K+, P < 0.001 vs K+ alone): 122 ± 5%; activity at 100 µM ([6]; 100 μM (basal)): 109 ± 4%
Brc1ccc(NCc2ccncc2)cc1 [Compound 13, 1-(4-Bromoanilino)-1-(4-pyridyl)-methan] | > 50% | no activity | < 100 mg/kg | inhibit selectively | no activity | –
